Tests used:
[1] = target: T1, chimeric receptor hRGR (human retinoic acid receptor with hGR DNA-binding domain) (Homo sapiens, UniProt P10276, INS60IETQSSSSEEIVPSPPSPPPLPRPPKLCLVCSDEASGCHYGVLTCGSCKVFFKRAVEGQHNYLCAGRNDCIIDKIRRKNCPACRYRKCLQAGMNLES); experiment: Functional ligand identification assay: CAT induction in CV-1 cells cotransfected with pRShRGR and MTV-CAT; format: cell-based; conditions: for Induction of CAT activity of the hybrid receptor by natural and synthetic non-retinoid ligands: pRShRGR + pMTVCAT, single 1 μM dose (FIG. 3A legend); for Induction of CAT activity of the hybrid receptor (in words): pRShRGR + MTV-CAT, FIG. 2B at 100 nM, FIG. 3A increasing concentrations
T1 construct: expressed in transfected cells; host or cells: CV-1 (African Green monkey kidney) cells, cotransfected with pRShRGR and pMTVCAT
T1 sequence (P10276 with tags, fused parts or gaps isoform P10276-3 INS60IETQSSSSEEIVPSPPSPPPLPRPPKLCLVCSDEASGCHYGVLTCGSCKVFFKRAVEGQHNYLCAGRNDCIIDKIRRKNCPACRYRKCLQAGMNLES): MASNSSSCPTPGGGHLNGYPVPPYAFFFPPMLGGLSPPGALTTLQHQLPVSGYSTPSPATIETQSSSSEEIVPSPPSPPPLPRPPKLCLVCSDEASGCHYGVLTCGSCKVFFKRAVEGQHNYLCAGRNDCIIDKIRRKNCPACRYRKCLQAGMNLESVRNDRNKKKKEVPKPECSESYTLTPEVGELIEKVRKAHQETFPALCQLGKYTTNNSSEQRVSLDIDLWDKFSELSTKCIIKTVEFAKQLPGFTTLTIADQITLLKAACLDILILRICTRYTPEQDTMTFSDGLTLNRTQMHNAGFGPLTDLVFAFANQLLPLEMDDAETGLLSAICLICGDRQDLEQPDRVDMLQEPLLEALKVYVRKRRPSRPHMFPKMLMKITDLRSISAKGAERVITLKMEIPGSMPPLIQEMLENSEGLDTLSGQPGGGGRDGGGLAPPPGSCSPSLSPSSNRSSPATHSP
Excerpt: Since the ligand for the gene product of phRAR1 was unknown, it was desirable to develop a quick and sensitive assay to reveal its identity. […] This chimera recognizes the glucocorticoid responsive element of the MMTV-LTR but stimulates transcription in an estrogen-dependent fashion (see Green, et al., (1987)). This led us to wonder if a general domain-swapping strategy could be exploited to identify the ligand-binding properties of a novel hormone receptor. To test this approach we first substituted the DNA-binding domain of the phRAR1 gene product with the well described DNA-binding domain from the hGR (FIG. 2A). (This chimeric construction, when expressed in suitable host cells, produces a hybrid receptor protein whose ligand-binding domain region must bind with a functional exogenous ligand before the ligand/receptor complex can bind to a GRE, thereby activating a glucocorticoid inducible promoter.)
To assay for the presence of a functional ligand the chimeric receptor gene was transfected into suitable host cells along with a suitable GRE linked reporter gene. CV-1 cells were used for the assay along with a MMTV-CAT reporter gene. (MMTV-CAT is carried on reporter plasmid, GM-CAT, which has been deposited with the American Type Culture Collection for patent purposes; see the section of this specification labeled, "Deposits"). […] For example, the growth hormone promoter can be functionally linked to the bacterial CAT gene. Since the growth hormone promoter contains a thyroid responsive transcription element, such a reporter plasmid can be used to assay hybrid thyroid receptor proteins. See the subheading: "Construction of Reporter and Expression Plasmids" in this specification. (Since mineralocorticoid receptors can activate GRE's, a reporter plasmid such as GM-CAT can be used to assay hybrid mineralocorticoid receptor proteins.)
Returning to the functional ligand identification assay, the transfected cells were then systematically challenged with a battery of candidate ligands and induction monitored by changes in CAT activity.
(§1) FIGS. 2A and 2B. 2A, Construction of the chimeric receptor hRGR. The domain-structure of the various constructions are shown schematically, the numbers correspond to the amino acid positions of each domain. The DNA-binding domains are represented by "DNA" and the ligand-binding domains by their respective inducers. The Nor1 and Xho1 sites created by site-directed mutagenesis to permit the exchange of the DNA-binding domains between receptors are indicated.
(§2) Methods. […] The mutant receptors were then transferred to the expression vector pRS (see Giguere, et al., (1986), and the Not1/Xho1 restriction fragment of pRShGRNX containing the hGR DNA-binding domain was introduced into pRShRnx between the Not1 and Xho1 sites to create pRShRGR. B, Cell transfection and CAT assay. The recombinant DNA constructs (5 μg each) were introduced into CV-1 cells by calcium phosphate coprecipitation (see Wigler, et al., (1979)). The cells were then cultured for two days in serum free media supplemented with Nutridoma (Boehringer Mannheim) in presence or absence of inducers. CV-1 cells were then prepared for CAT assays as described by Gorman, et al. (1982) and the assays performed for 3 h using 25 μg of protein extract. All experiments with retinol were conducted in subdued light.
(§3) FIGS. 3A and 3B. 3A, Dose-response to retinoids. […] The levels of CAT activity were plotted as percentages of the maximal response observed in this experiment. […] The values represent the mean of quadruplicate determinations.
Methods. 3A, CV-1 cell cotransfections and CAT assays were performed as described in FIG. 2.

[2] = system: hybrid receptors with an hTRβ carboxyl terminus; experiment: Hybrid thyroid/glucocorticoid receptor CAT assay, hybrids with hTRβ carboxyl terminus; format: cell-based, human; conditions: CV-1 cells, FIG. 9
Protocol: CV-1 cells were used as the receptor-deficient host cells that were transfected with expression plasmids that carry the chimeric RR/TR receptors, and reporter plasmids carrying the CAT reporter gene. […] Acetylated and non-acetylated forms of [^14 C]chloramphenicol were separated by thin layer chromatography, excised, and quantitated by liquid scintillation counting in Econofluor (DuPont) with 5% DMSO. β-galactosidase assays were performed as described by Herbomel et al. (1984). CAT activity is expressed as percent conversion divided by β-galactosidase activity.

[3] = system: alpha thyroid hormone receptor (rTRα); conditions: CV-1 cells, absence or presence of T3 (data not shown)
[4] = system: beta thyroid hormone receptor (hTRβ); conditions: CV-1 cells, absence or presence of T3 (data not shown)
[5] = target: T2, phRAR1 gene product (human retinoic acid receptor) (Homo sapiens, UniProt P10276); experiment: 3H-retinoic acid binding to cytosol extracts of COS-1 cells transfected with pRShRR; conditions: for Competition of 3H-retinoic acid binding: cytosol of transfected COS-1 cells, 2×10^-8 M 3H-retinoic acid, 1000-fold excess (2×10^-5 M) competitor, 4° C., 16 h
T2 sequence (P10276 1-462): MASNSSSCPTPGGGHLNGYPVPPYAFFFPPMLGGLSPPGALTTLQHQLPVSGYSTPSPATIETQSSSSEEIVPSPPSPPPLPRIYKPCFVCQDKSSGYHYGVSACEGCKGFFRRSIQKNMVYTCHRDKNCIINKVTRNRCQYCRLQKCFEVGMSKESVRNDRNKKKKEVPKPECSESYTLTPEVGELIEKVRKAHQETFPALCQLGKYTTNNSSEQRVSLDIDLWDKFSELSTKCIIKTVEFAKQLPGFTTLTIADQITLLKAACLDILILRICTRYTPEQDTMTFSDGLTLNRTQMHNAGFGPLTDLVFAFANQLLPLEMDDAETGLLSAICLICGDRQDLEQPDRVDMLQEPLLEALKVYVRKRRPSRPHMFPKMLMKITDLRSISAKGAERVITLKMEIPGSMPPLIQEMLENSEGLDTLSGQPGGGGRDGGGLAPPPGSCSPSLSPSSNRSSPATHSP
Protocol: as §3
Methods. 3A, CV-1 cell cotransfections and CAT assays were performed as described in FIG. 2. […] All other products were diluted in ethanol and control cultures received 0.1% solvent (v/v) in media. Dose-response curves of retinoid treatment were performed in triplicate. 3B, Subconfluent COS-1 cells were transfected with 10 μg/dish of a control plasmid (pRS) or pRShRR by the DEAE-Dextran method (see Deans, et al., (1984)). Cells were maintained for 2 days in DMEM with 5% charcoal-treated fetal calf serum, then harvested in TNE (40 mM tris-HCl pH 7.5, 150 mM NaCl, 1 mM EDTA) and lysed by Dounce homogenization in hypotonic buffer (50 mM tris-HCl pH 7.4, 0.1 mM EDTA, 5 mM dithiothreitol,10 mM NaMoO4, 10% glycerol, 0.5 mM phenylmethylsulfonyl fluoride) and centrifuged at 100,000×g for 30 min to yield the cytosol fraction. […] Specific binding was measured by the addition of 2×10^-5 M of competitors. Reactions were carried out at 4° C. for 16 h. […] Reactions were placed on filters for 1 min and then rinsed with 5 ml of washing buffer (50 mM tris-HCl pH 7.4, 0.1 mM EDTA, 0.1% Triton X-100). Filters were dried and counted by liquid scintillation spectrophotometry.

[6] = system: human glucocorticoid receptor (hGR); experiment: CAT induction in CV-1 cells cotransfected with pRShGR and MTV-CAT; format: cell-based; conditions: pRShGR + MTVCAT, 100 nM, 2 days
Excerpt: as §1, §2

[7] = system: human retinoic acid receptor (hRARα); experiment: CAT induction in CV-1 cells cotransfected with pRShRR and MTV-CAT; format: cell-based; conditions: pRShRR + MTVCAT, 100 nM, 2 days
Excerpt: as §1, §2

[8] = system: mutated human retinoic acid receptor with Not1 and Xho1 sites (pRShRRNX); experiment: CAT induction in CV-1 cells cotransfected with parent vector pRShRRNX and MTV-CAT; format: cell-based; conditions: pRShRRNX + MTVCAT, 100 nM, 2 days
Excerpt: as §1, §2

Question: `C[C@]12CCC(=O)C=C1CC[C@@H]1[C@@H]2[C@@H](O)C[C@]2(C=O)[C@@H](C(=O)CO)CC[C@@H]12` [aldosterone] was tested. Which “Induction of CAT activity of the hybrid receptor by natural and synthetic non-retinoid ligands” value [1] did it give?
Answer: failed to induce CAT activity

Question: `C[C@]12CCC(=O)C[C@@H]1CC[C@@H]1[C@@H]2CC[C@]2(C)[C@@H](O)CC[C@@H]12` [dihydrotestosterone] was tested. Which “Induction of CAT activity of the hybrid receptor by natural and synthetic non-retinoid ligands” value [1] did it give?
Answer: failed to induce CAT activity

Question: With `N[C@@H](Cc1cc(I)c(Oc2cc(I)c(O)c(I)c2)c(I)c1)C(=O)O` [T4, thyroxine] as the compound, how does the “Induction of CAT activity of the hybrid receptor by natural and synthetic non-retinoid ligands” value [1] read?
Answer: failed to induce CAT activity

Question: Which “Induction of CAT activity of the hybrid receptor by natural and synthetic non-retinoid ligands” value [1] does the source give for `C[C@]12CCC(=O)C=C1CC[C@@H]1[C@@H]2[C@@H](O)C[C@@]2(C)[C@H]1CC[C@]2(O)C(=O)CO` [cortisol] here?
Answer: failed to induce CAT activity

Question: How did the “Activation of hybrid receptors by hormone” value [2] turn out when `N[C@@H](Cc1cc(I)c(Oc2ccc(O)c(I)c2)c(I)c1)C(=O)O` [T3, 3,5,3'-triiodo-L-thyronine] was run?
Answer: activated

Question: What about the “Activation of transcription from MTV-CAT (no TRE)” value [3] of the same compound?
Answer: neither the alpha nor the beta thyroid hormone receptor activates transcription

Question: What about the “Activation of transcription from MTV-CAT (no TRE)” value [4] of the same compound?
Answer: neither the alpha nor the beta thyroid hormone receptor activates transcription

Question: `CC1=C(/C=C/C(C)=C/C=C/C(C)=C/CO)C(C)(C)CCC1` [retinol] was tested. Which “Induction of CAT activity of the hybrid receptor (in words)” value (from here on “Induction of CAT activity … (in words)”) [1] did it give?
Answer: weak agonist

Question: What about the “Competition of 3H-retinoic acid binding” value [5] of the same compound?
Answer: only partially

Question: With `CC(=O)[C@H]1CC[C@H]2[C@@H]3CCC4=CC(=O)CC[C@]4(C)[C@H]3CC[C@]12C` [progesterone] as the compound, how does the “Induction of CAT activity of the hybrid receptor by natural and synthetic non-retinoid ligands” value [1] read?
Answer: failed to induce CAT activity

Question: For `C=C1CC[C@H](O)C/C1=C/C=C1\CCC[C@]2(C)[C@@H]([C@H](C)CCCC(C)C)CC[C@@H]12` [Vitamin D3], which “Induction of CAT activity of the hybrid receptor by natural and synthetic non-retinoid ligands” value [1] is on record?
Answer: failed to induce CAT activity

Question: What about the “Competition of 3H-retinoic acid binding” value [5] of the same compound?
Answer: did not compete

Question: With `C[C@H](CCCC(C)(C)O)[C@H]1CC[C@H]2[C@@H]3CC=C4C[C@@H](O)CC[C@]4(C)[C@H]3CC[C@]12C` [25-OH-cholesterol] as the compound, how does the “Induction of CAT activity of the hybrid receptor by natural and synthetic non-retinoid ligands” value [1] read?
Answer: failed to induce CAT activity

Question: How did the “Induction of CAT activity of the hybrid receptor by natural and synthetic non-retinoid ligands” value [1] turn out when estrogen was run?
Answer: failed to induce CAT activity

Question: `CC1=C(/C=C/C(C)=C/C=C/C(C)=C/C(=O)O)C(C)(C)CCC1` [retinoic acid] was tested. Which “Induction of CAT activity … (in words)” value [1] did it give?
Answer: dramatic increase in CAT activity

Question: And the “Induction of hGR (CAT activity)” value [6]?
Answer: not induced

Question: And the “Effect upon CAT activity using wild type gene product hRARα” value [7]?
Answer: No effect upon CAT activity

Question: What about the “Effect upon CAT activity using parent vector pRShRRNX” value [8] of the same compound?
Answer: No effect upon CAT activity

Question: And the “Competition of 3H-retinoic acid binding” value [5]?
Answer: fully competed

Question: With ^3 H-retinoic acid as the compound, how does the “Specific binding of 3H-retinoic acid by transfected cells” value ([5]; COS-1 cells transfected with pRShRR versus control plasmid pRS) read?
Answer: increased capacity to specifically bind

Question: For `C[C@]12CC[C@H]3[C@@H](CCC4=CC(=O)CC[C@@]43C)[C@@H]1CC[C@@H]2O` [testosterone], which “Induction of CAT activity of the hybrid receptor by natural and synthetic non-retinoid ligands” value [1] is on record?
Answer: failed to induce CAT activity

Question: Which “Induction of CAT activity … (in words)” value [1] does the source give for `CCCCCCCCCCCCCCCC(=O)OC/C=C(C)/C=C/C=C(C)/C=C/C1=C(C)CCCC1(C)C` [retinyl palmitate] here?
Answer: even weaker inducers

— patent US5599904A, “Chimeric steroid hormone superfamily receptor proteins” (priority 1992, dated 1997)
